Where “and” joins values, the source holds several entries; their conditions need not be identical. Equal values may be shown once. Entries after “also recorded” stand apart in the source; their conditions may differ.
Legend:
[1] = test system: rat dissociated hippocampal neurons; experiment: Neurite morphometry in dissociated hippocampal neurons; format: cell-based; conditions: 24 h treatment, 1 day in vitro, D2 1 μM, FGF-2 40 ng/mL, mean ± SEM
Procedure: In the pursuit of this, we used rat dissociated hippocampal neurons as an in vitro model system. We assessed the impact of HS glycomimetics on neuronal morphology, using immunofluorescence imaging and quantitative morphometric analysis, and on synaptic functionality through electrophysiological monitoring of spontaneous neuronal activity.
During the first day of differentiation in vitro (Table S7.1 in SI), neurons were treated for 24 h with either control medium, glycomimetic D2 (1 μM), FGF-2 (40 ng/mL) alone, or a combination of FGF-2 and D2 (40 ng/mL and 1 μM, respectively). After treatments, cultures were fixed and immuno-labeled with antibodies against the neuronal marker β-Tubulin III to study cell morphology. […] Quantitative analysis further corroborated these observations (Figure B–C).

hippocampal neurons = experiment: Patch clamp recording of spontaneous synaptic activity in hippocampal neurons; format: cell-based, rat; conditions: 24 h treatment, neurons at 8 days in vitro, voltage clamp −58 mV; mean ± SEM
Source text: In another set of experiments, we investigated the impact of D2+FGF-2, with respect to that of FGF-2 alone, on the formation of functionally active neuronal networks. To this aim, we used hippocampal neurons developed in vitro for 1 week, from which, through the single-cell patch clamp technique, we recorded in voltage clamp mode spontaneous synaptic activity. […] While neurons treated with FGF-2 alone presented sPSCs of fluctuating amplitude (in average 42 ± 5 pA) at a frequency of 1.23 ± 0.38 Hz, the coapplication of D2 with the growth factor induced a statistically significant enhancement of both these values (for D2+FGF-2, sPSCs frequency: 2.52 ± 0.47 Hz, and sPSCs amplitude: 75 ± 14 pA, p < 0.05 FGF-2 vs D2+FGF-2, Figure E–F).

[2] = test system: citrated pooled rat plasma; experiment: Activated partial thromboplastin time (aPTT) assay; conditions: citrated pooled rat plasma; highest concentration tested; control 22 s
Source text: To complement these findings, we performed an activated partial thromboplastin time (aPTT) assay in citrated pooled rat plasma to assess the overall impact of the compounds on the intrinsic coagulation pathway. This global clotting assay measures the time required for fibrin formation and is sensitive to anticoagulant effects. Figure F,G compare the effects of UFH, heparan sulfate, Fondaparinux, and the synthetic glycomimetics when supplemented into citrated plasma. […] As expected, UFH produced a strong, concentration-dependent anticoagulant response, prolonging the mean clotting time to 271 s at the highest concentration tested, while heparan sulfate and Fondaparinux induced weaker but measurable effects (83 and 37 s, respectively). […] The results further confirm that selective sulfation patterns can decouple GF recognition from anticoagulant function, an essential prerequisite for their translational application in regenerative medicine. […] These interactions are in line with nonspecific electrostatic binding, a feature of highly sulfated oligosaccharides known to engage different proteins via charge-based, rather than specific, biologically targeted interactions. Thus, to avoid potential off-target effects associated with highly sulfated analogues, we selected the disaccharide D2 for subsequent biological experiments.

Factor Xa = experiment: AT-III-mediated chromogenic substrate assay; format: biochemical; conditions: absorbance at 405 nm
Source text: (§1) Active coagulation factors cleave chromogenic peptide substrates, therefore producing p-nitroaniline, a yellow-colored product with a detectable absorbance signal at λ = 405 nm. Inhibitors like heparin-AT-III complexes decrease enzyme activity and so lower absorbance readings.

FGF-1 = FGF-1 (Homo sapiens, UniProt P05230); experiment: Far-UV CD spectroscopy and CD thermal denaturation; conditions: CD thermal denaturation 10–90 °C; protein with sugar, 1:3 molar ratio
Source text: (§2) To select a lead compound, we complemented the affinity data with a series of studies evaluating the structural and functional implications of protein-HS glycomimetic interactions. We assessed the therapeutic safety profile of our HS glycomimetics. We also employed circular dichroism (CD) spectroscopy to assess secondary structural changes in protein conformation upon binding to native HS and HS glycomimetics. Since native HS alone produces only a minimal signal, it was ensured that its contribution would not interfere with protein-sugar complex spectra. Therefore, only the far-UV CD spectra of bare proteins and their sugar complexes were recorded. […] Upon incubation with sugars (1:3 molar ratio), significant spectral changes were observed, indicating sugar-induced alterations in secondary structure (Figure A).
(§3) We also evaluated the thermal stability of the proteins and their sugar complexes by CD-based thermal denaturation experiments. The spectra were recorded across a temperature range of 10–90 °C (Figure B). For all proteins except AT-III, the unfolding profiles were analyzed to determine the melting temperature (T m), representing the midpoint of the transition from the folded to the unfolded state, an indicator of structural integrity and resistance to thermal denaturation. The calculated values are compiled in Table .

FGF-2 [3] = target: T1, FGF-2 (Homo sapiens, UniProt P09038); experiment: Far-UV CD spectroscopy and CD thermal denaturation; conditions: CD thermal denaturation 10–90 °C; protein with sugar, 1:3 molar ratio
Source text: as §2, §3

Factor IIa (thrombin) = experiment: AT-III-mediated chromogenic substrate assay; format: biochemical; conditions: absorbance at 405 nm
Source text: as §1

AT-III = AT-III (Homo sapiens, UniProt P01008); experiment: BLI binding assay, sugars immobilized, protein as analyte
Procedure: We evaluated the binding affinity of native HS and synthetic HS glycomimetics (M1, D1, D2, D3, and T1) to these proteins using biolayer interferometry (BLI). The terminal amino groups of the sugars were immobilized onto the sensor surface using standard amine coupling chemistry, and binding assays were performed by introducing the proteins as analytes at varying concentrations (Figure A). The equilibrium dissociation constants (K D) were determined using the steady-state affinity curve fitting.

FGF-2 [4] = target: T1, FGF-2; experiment: BLI competition assay with immobilized native HS for FGF-2 binding; conditions: for competition with immobilized native HS for FGF-2 binding, signal intensity: FGF-2 50 nM premixed with varying concentrations; for IC50: FGF-2 50 nM, fixed association time t = 240 s, read-out: Apparent IC50(t), competition with immobilized native HS for FGF-2 binding
Source text: We next examined the functional relevance of the synthetic HS glycomimetics by testing their ability to compete with native HS for FGF-2 binding using competition assays. Although direct binding assays measure the intrinsic affinity of HS glycomimetics for FGF-2, they are limited in representing the complex, multimolecular environment of biological systems. In vivo, FGF-2 activity is tightly regulated by its interactions with GAGs, which are abundant on cell surfaces and in the ECM. These interactions stabilize FGF-2 and facilitate its dimerization with FGF receptors (FGFRs), a requirement for effective signal transduction. , Thus, therapeutic candidates targeting FGF-2 must be evaluated not only for direct binding but also for their ability to modulate or disrupt GAG-mediated interactions. Therefore, we performed competition assays in which native HS was immobilized on the sensor surface. Solutions containing a fixed concentration of FGF-2 (50 nM) were premixed with varying concentrations of HS glycomimetics, functioning as inhibitors in this context, (M1, D1, D2, D3, and T1) and also with the heparin hexasaccharide (H1) (GlcNS6S-GlcA-GlcNS3S6S-IdoA2S-GlcNS6S-GlcA), a well-studied HS glycomimetic in the literature, as a positive control (Figure B). […] The progressive decrease in signal intensity with increasing inhibitor concentration directly reflects competition with immobilized HS for FGF-2 binding.

T1 sequence (P09038 134-288 limits assumed, species assumed): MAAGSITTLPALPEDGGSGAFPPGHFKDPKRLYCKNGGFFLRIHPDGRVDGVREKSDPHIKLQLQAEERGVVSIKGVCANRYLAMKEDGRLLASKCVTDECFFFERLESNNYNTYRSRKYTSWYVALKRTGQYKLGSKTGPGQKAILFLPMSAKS
FGF-1, sequence (P05230 whole entry, species assumed): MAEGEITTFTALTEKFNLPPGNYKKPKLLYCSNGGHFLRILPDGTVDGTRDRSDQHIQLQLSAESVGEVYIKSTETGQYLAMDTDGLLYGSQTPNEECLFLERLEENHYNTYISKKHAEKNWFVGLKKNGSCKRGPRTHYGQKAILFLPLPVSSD
AT-III, sequence (P01008 33-464): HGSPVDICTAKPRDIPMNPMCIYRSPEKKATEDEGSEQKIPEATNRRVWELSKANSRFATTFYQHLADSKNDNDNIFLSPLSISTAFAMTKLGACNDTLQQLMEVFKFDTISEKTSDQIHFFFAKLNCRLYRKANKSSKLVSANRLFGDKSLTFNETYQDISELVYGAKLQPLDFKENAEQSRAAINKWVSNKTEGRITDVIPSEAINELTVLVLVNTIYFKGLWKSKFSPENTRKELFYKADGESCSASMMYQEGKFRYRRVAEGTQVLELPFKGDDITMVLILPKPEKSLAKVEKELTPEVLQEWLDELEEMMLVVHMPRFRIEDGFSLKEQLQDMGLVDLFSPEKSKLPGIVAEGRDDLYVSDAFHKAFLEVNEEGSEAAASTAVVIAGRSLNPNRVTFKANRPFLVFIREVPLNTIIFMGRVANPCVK

Row | Molecule | aPTT mean clotting time [2] [s] | FGF-1 Sample Tm (FGF-1) | FGF-2 Sample Tm (FGF-2 [3]) | competition with immobilized native HS for FGF-2 binding, signal intensity (FGF-2 [4]) | IC50 (FGF-2 [4]) | other results
1 | FGF-2: fibroblast growth factor-2, basic FGF, applied alone at 40 ng/mL |  |  |  |  |  | number of neurites emerging from the cell body ([1]; control 3.6 ± 0.22): 5.4 ± 0.28 neurites per neuron; length of the longest neurite ([1]; control 38 ± 2): 45 ± 4 μm; sPSCs amplitude (hippocampal neurons): 42 ± 5 pA; sPSCs frequency (hippocampal neurons): 1.23 ± 0.38 Hz
2 | CO[C@H]1O[C@H](COS(=O)(=O)O)[C@@H](O[C@@H]2O[C@@H](C(=O)O)[C@@H](O[C@H]3O[C@H](COS(=O)(=O)O)[C@@H](O[C@@H]4O[C@H](C(=O)O)[C@@H](O[C@H]5O[C@H](COS(=O)(=O)O)[C@@H](O)[C@H](O)[C@H]5NS(=O)(=O)O)[C@H](O)[C@H]4O)[C@H](OS(=O)(=O)O)[C@H]3NS(=O)(=O)O)[C@H](O)[C@H]2OS(=O)(=O)O)[C@H](O)[C@H]1NS(=O)(=O)O [Fondaparinux, reference compound] | 37 |  |  |  |  | AT-III-mediated Factor Xa activity (Factor Xa): selectively inhibited
3 | NC[C@H]1O[C@H](O[C@H]2[C@H](OS(=O)(=O)O)[C@@H](OS(=O)(=O)O)[C@@H](O[C@H]3[C@H](OS(=O)(=O)O)[C@@H](OS(=O)(=O)O)[C@@H](O[C@H]4[C@H](OS(=O)(=O)O)[C@@H](OS(=O)(=O)O)[C@@H]5OC[C@H]4O5)O[C@@H]3COS(=O)(=O)O)O[C@@H]2COS(=O)(=O)O)[C@H](OS(=O)(=O)O)[C@@H](OS(=O)(=O)O)[C@@H]1OS(=O)(=O)O [T1, Glc2S3S-Glc2S3S6S-Glc2S3S6S-Glc2S3S] | 28.5 | 46.3 °C and 46.3 ± 0.5 °C | 59.3 °C and 59.3 ± 2.2 °C | dose-dependent reduction in signal intensity | 900 nM and 910 nM | AT-III-mediated Factor IIa activity (Factor IIa (thrombin)): slight interactions; AT-III-mediated Factor Xa activity (Factor Xa): slight interactions; binding to AT-III (AT-III): bound to AT-III
4 | CC(=O)N[C@H]1[C@@H](OCCN)O[C@H](COS(=O)(=O)O)[C@@H](O)[C@@H]1O [M1, GlcNAc6S] | 22 | 43.3 °C and 43.3 ± 0.4 °C | 50.7 °C and 50.7 ± 0.2 °C | much weaker effect; also recorded: minimal inhibition |  | 
5 | CC(=O)N[C@H]1[C@@H](OCCN)O[C@H](CO)[C@@H](O[C@@H]2O[C@@H](C(=O)O)[C@@H](OS(=O)(=O)O)[C@H](O)[C@H]2OS(=O)(=O)O)[C@@H]1O [D1, IdoA2S4S-GlcNAc] | 22.5 | 44.5 °C and 44.5 ± 0.4 °C | 51.6 °C and 51.6 ± 1.9 °C | much weaker effect; also recorded: minimal inhibition |  | 
6 | NCCCCCOC1OC(COS(=O)(=O)O)C(OC2OC(C(=O)NNS(=O)(=O)O)C(OS(=O)(=O)O)C(O)C2OS(=O)(=O)O)C(O)C1NS(=O)(=O)O (stereo not shown) [D3, GlcANS6S-GlcNS6S] | 25.3 | 45.3 °C and 45.3 ± 0.3 °C | 54.2 °C and 54.2 ± 1.2 °C | dose-dependent reduction in signal intensity | 84500 nM | 
7 | GlcNS6S-GlcA-GlcNS3S6S-IdoA2S-GlcNS6S-GlcA [H1, reference compound] |  |  |  |  | 2610 nM | 

— article PMC12715788, “Unraveling the Potential of Small Molecule Heparin Glycomimetics in Neuroregenerative Therapeutics” (Journal of the American Chemical Society, 2025)
